From US8491897B2, “Treatment of neuropathic pain using anti-thrombospondin antibodies” (The Board of Trustees of the Leland Stanford Junior …, priority 2007, dated 2013)
“Also recorded” adds a separate entry of the source.

Legend:
TSP4 = target: T1, TSP4 (Rattus norvegicus, UniProt P49744); experiment: Reversal of established tactile allodynia in L5/6 spinal nerve ligated rats (von Frey PWT); type: in vivo; conditions: 50 ug/day intrathecal for four days; for reversal of established allodynia in the injury (ipsilateral) side: 5 weeks post injury
T1 construct: elevated TSP4 protein may play a critical role in peripheral nerve injury-induced allodynia at the spinal level; from tissue; host or cells: spinal cord (L5/6) of live male Sprague Dawley rats, intrathecal injection
T1 sequence (P49744 43-980): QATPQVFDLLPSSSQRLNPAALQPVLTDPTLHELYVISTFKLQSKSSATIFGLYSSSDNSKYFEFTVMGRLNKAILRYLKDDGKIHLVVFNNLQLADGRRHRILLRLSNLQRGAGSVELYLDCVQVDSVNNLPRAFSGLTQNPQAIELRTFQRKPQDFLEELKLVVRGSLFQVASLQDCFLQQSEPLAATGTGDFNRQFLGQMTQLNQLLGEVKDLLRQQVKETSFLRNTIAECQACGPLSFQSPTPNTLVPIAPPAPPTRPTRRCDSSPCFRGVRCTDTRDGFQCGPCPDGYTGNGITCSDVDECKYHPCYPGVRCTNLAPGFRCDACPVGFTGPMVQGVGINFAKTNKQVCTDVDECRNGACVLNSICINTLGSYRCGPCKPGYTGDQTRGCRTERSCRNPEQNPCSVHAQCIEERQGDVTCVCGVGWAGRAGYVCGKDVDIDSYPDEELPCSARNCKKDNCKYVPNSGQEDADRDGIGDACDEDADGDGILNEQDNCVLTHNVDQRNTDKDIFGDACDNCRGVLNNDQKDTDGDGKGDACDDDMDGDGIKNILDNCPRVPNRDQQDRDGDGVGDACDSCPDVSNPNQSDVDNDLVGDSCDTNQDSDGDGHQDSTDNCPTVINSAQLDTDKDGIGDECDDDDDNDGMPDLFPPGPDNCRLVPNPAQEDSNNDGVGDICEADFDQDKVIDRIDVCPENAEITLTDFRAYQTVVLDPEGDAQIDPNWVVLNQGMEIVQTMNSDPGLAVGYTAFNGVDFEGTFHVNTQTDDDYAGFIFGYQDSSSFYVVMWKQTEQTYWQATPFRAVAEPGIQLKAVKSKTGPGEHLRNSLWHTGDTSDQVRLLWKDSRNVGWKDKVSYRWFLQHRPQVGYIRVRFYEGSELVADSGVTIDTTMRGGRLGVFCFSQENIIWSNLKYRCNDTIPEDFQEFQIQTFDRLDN
Description: To determine if TSP4 plays a role in mediating neuropathic pain processing at the spinal cord level, the effect of intrathecal TSP4 antisera in reversing established allodynia in spinal nerve ligated rats was examined. Intrathecal bolus injection of active TSP4 antibody (chicken polyclonal, from Dr. Frank Zaucke at University of Cologne, Cologne, Germany) was administered into left L5/6 spinal nerve ligated rats 2-weeks post injury, when the injured rats had fully developed allodynia. […] Neither the antisense nor mismatch oligodeoxynucleotides altered the behavioral thresholds at the non-injury side. […] Male Harlan Sprague Dawley rats (100-150 g, Harlan Industries Indianapolis, Ind.) were housed in separate cages, exposed to a 12/12 h day/night cycle and allowed free access to food and water. Peripheral nerve injury was induced in isoflurane-anesthetized animals with tight ligation of the left L5/6 spinal nerves between DRG and the beginning of the spinal nerve (Kim and Chung, Pain 50 50:355-363, 1992). To access tactile allodynia, paw withdrawal threshold (PWT) was determined using the up-down method of Dixon (Dixon, Ann. Rev. Pharma. & Toxico. 20:441-462, 1980) with von Frey filaments (Stoelting, Wood Dale, Ill., USA) as described previously (Chaplan et al., J. Neuros. Methods 53:55-63, 1994). Briefly, animals were allowed to acclimate for 30 min in a clear plastic cubicle with a wire-mesh base. A 2 g calibrated filament was first applied to the left hindpaw plantar surface with a pressure causing the filament to bend. If no paw lifting was detected after 5 s the next filament with increasing weight was used. If a paw lifting was observed, the next weaker filament was used. […] Neurosci. 21:1868-75, 2001). […] Rn014934317, Applied Biosystems), and is specific to the TSP 4 mRNA. Mismatch oligodeoxynucleotides, which contain the same number of nucleotides but in a random order (not complementary to any particular region of TSP4 mRNA), were used as controls. […] Genbank accession #: X89963) Oligodeoxynucleotides: These antisense and mismatch sequences were not complementary to any sequences of other rat genes as indicated by BLAST search results in rat genome database. It had been shown that oligodeoxynucleotides with phosphorothioate modification have increased potential for crossing lipid bilayers, and reduce nuclease cleavage (Crooke, et al., Ann. Rev. Pharmacology. & Toxicology, 1996).

RGCs [1] = experiment: Inhibition of TSP-, astrocyte/ACM- or Hevin-induced synapse formation in RGC cultures; type: cell-based, rat
Description: (§1) RGCs were purified by sequential immunopanning to greater than 99.5% purity from P5 Sprague-Dawley rats (Simonsen Labs, Gilroy, Calif.), as previously described (Barres et. al. (1988) Neuron 9, 791). Approximately 30,000 RGCs were cultured per well in 24-well plates (Falcon) on glass (Assistant) or Aclar 22C (Allied Signal) coverslips coated with poly-D-lysine (10 μg/ml) followed by laminin (2 μg/ml). RGCs were cultured in 600 μl of serum-free medium, modified from Bottenstein and Sato (1979), containing Neurobasal (Gibco), bovine serum albumin, selenium, putrescine, triiodo-thyronine, transferrin, progesterone, pyruvate (1 mM), glutamine (2 mM), CNTF (10 ng/ml), BDNF (50 ng/ml), insulin (5 μg/ml), and forskolin (10 μM). Recombinant human BDNF and CNTF were generously provided by Regeneron Pharmaceuticals.
(§2) Purified human platelet TSP1 was from either Sigma or Haematologic Technologies with similar results. Recombinant TSP2 was purified from serum-free medium conditioned by baculovirus-infected insect cells expressing mouse TSP2. Since purified TSP1 is readily available, we used this as the source of TSP in our experiments unless otherwise stated TSPs were used at a concentration of 5 μg/ml unless otherwise specified. RCGs were cultured for 4 days to allow robust process outgrowth and then cultured with TSPs for an additional 6 days. All other reagents were obtained from Sigma.
(§3) For preparation of ACM, confluent cultures of astrocytes in 10 cm dishes were washed 3× in PBS and fed with 10 mls RGC medium (without CNTF, BDNF or forskolin). ACM was harvested after 4-6 days of conditioning, filtered through a 0.2 μm syringe filter and concentrated 10× through a 5 KD molecular weight cut-off centrifuge concentrator (Millipore), unless otherwise indicated. ACM was used at a final concentration of 5× unless otherwise indicated. RCGs were cultured for 4 days to allow robust process outgrowth and then cultured with ACM or an astrocyte-feeding layer for an additional 6 days.
For synapse quantification, cultures were fixed for 7 min in 4% paraformaldehyde (PFA), washed 3× in phosphate buffered saline (PBS) and blocked in 100 μL of blocking buffer (50% Antibody Buffer (0.5% bovine serum albumin, 0.5% Triton X-100, 30 mM NaPO4, 750 mM NaCl, 5% normal goat serum, and 0.4% NaN3, pH 7.4), 50% goat serum (NGS), 0.1% Triton-X) for 30 min. After blocking, cover slips were washed 3× in PBS and 100 μL of primary antibody solution was added to each cover slip, consisting of rabbit anti-synaptotagmin (cytosolic domain, Synaptic Systems) and mouse anti-PSD-95 (6G6-1C9 clone, Affinity Bio Reagents) diluted 1:500 in antibody buffer. Coverslips were incubated overnight at 4° C., washed 3× in PBS, and incubated with 100 μL of secondary antibody solution containing Alexa-594 conjugated goat anti-rabbit and Alexa-488 conjugated goat anti-mouse (Molecular Probes) diluted 1:1000 in antibody buffer. Following incubation for 2 h at room temperature, coverslips were washed five times in PBS and mounted in Vectashield mounting medium with DAPI (Vector Laboratories Inc) on glass slides (VWR Scientific). For presynaptic activity assay, rabbit synaptotagmin antiserum was generated by immunization with a peptide corresponding to the N-terminal luminal portion of synaptotagmin. This serum was added at 1:500 to live cultures and incubated for 6 hours. Cells were then washed 3× in DPSB, fixed and stained as above, except for the omission of synaptotagmin antibody from the primary antibody solution.
(§4) Mounted coverslips were imaged using Nikon Diaphot and Eclipse epifluorescence microscopes (Nikon). Healthy cells that were at least 2 cell diameters from their nearest neighbor were identified and selected at random by eye using DAPI fluorescence. 8-bit digital images of the fluorescence emission at both 594 nm and 488 nm were recorded for each selected cell using a cooled monochrome CCD camera and SPOT image capture software (Diagnostic Instruments, Inc). […]

RGCs [2] = experiment: RGC synapse assay: synaptogenic activity (co-localized synaptotagmin/PSD-95 puncta); type: cell-based, rat; conditions: for number of co-localized synaptic puncta/cell (synapse number): purified TSPs, 8 nM each, vs RGCs alone (Control)
Description: as §1, §2
as §3, with “RCGs were cultured for 4 days to allow robust process outgrowth and then cultured with ACM or an astrocyte-feeding layer for an additional 6 days.” left out
For synapse quantification, cultures were fixed for 7 min in 4% paraformaldehyde (PFA), washed 3× in phosphate buffered saline (PBS) and blocked in 100 μL of blocking buffer (50% Antibody Buffer (0.5% bovine serum albumin, 0.5% Triton X-100, 30 mM NaPO4, 750 mM NaCl, 5% normal goat serum, and 0.4% NaN3, pH 7.4), 50% goat serum (NGS), 0.1% Triton-X) for 30 min. […]
as §4

naive rats = experiment: TSP4-induced behavioral hypersensitivity in naive rats (paw withdrawal threshold, von Frey); type: in vivo, rat

5′ CCATCATTGTTGCTATCTTCC 3′ (DNA, backbone and methylation of C not given here; further chemistry not fully specified) [Antisense #2]
duration of antisense effects after the last injection (TSP4): 3 days | onset time of antisense effects (TSP4): 3 days | time of peak antisense effect (TSP4): one day after the 4-day treatment | reversal of established allodynia in the injury (ipsilateral) side (TSP4): caused a complete reversal of established allodynia | reversal of established allodynia in the injury (ipsilateral) side (TSP4; listed as TSP4 antisense oligonucleotide #2): caused a complete reversal of established allodynia in the injury side

5′ GGCGTAATCATGGTCATACG 3′ (DNA, backbone and methylation of C not given here; further chemistry not fully specified) [Antisense #1]
reversal of established allodynia in the injury (ipsilateral) side (TSP4): had some effects in allodynia reversal

NCCCC(=O)O [GABA, γ-aminobutyric acid]
effect on SD2/TSP-induced synapse formation (RGCs [1]; 1 mM (high concentrations)): blocked TSP induced synapse formation; also recorded: inhibitory | effect on synapse numbers induced by SD2 (RGCs [1]; 10 and 100 μM): did not decrease the synapse numbers

TSP1: purified human platelet TSP1, trimeric thrombospondin
number of co-localized synaptic puncta/cell (synapse number) (RGCs [2]): significantly increased the number of co-localized synaptic puncta/cell; also recorded: increased the number of synapses formed by RGCs significantly

TSP3: mouse TSP3 overexpressed in Cos7 cells; conditioned media used as source
number of co-localized synaptic puncta/cell (RGCs [2]; culture supernatant of Cos7 cells overexpressing TSP3, vs supernatant of empty-vector Cos7 cells): significantly increased the number of co-localized synaptic puncta/cell; also recorded: increased the number of synaptic puncta to the same extent as astrocytes

TSP4: recombinant purified pentameric thrombospondin 4
duration of behavioral hypersensitivity (naive rats; intrathecal bolus): over a week | reversal time post the peak effect time (naive rats; intrathecal bolus): about five days | time of peak effect post injection (naive rats; intrathecal bolus): 2 to 4 days | hindpaw withdrawal thresholds to von Frey filament stimulation (naive rats; intrathecal bolus injection of active protein into L5/6 spinal cord segments): caused a gradual reduction in their hindpaw withdrawal thresholds; also recorded: induced behavioral hypersensitivity in a dose-dependent and reversible manner | number of co-localized synaptic puncta/cell (synapse number) (RGCs [2]): significantly increased the number of co-localized synaptic puncta/cell; also recorded: increased synaptic puncta numbers to the same extent as either astrocytes or TSP1

B1: Hevin: another astrocyte secreted synaptogenic protein (protein, UniProt Q14515 17-664, looked up)
SPARC-like protein 1: IPTNARLLSDHSKPTAETVAPDNTAIPSLRAEAEENEKETAVSTEDDSHHKAEKSSVLKSKEESHEQSAEQGKSSSQELGLKDQEDSDGHLSVNLEYAPTEGTLDIKEDMSEPQEKKLSENTDFLAPGVSSFTDSNQQESITKREENQEQPRNYSHHQLNRSSKHSQGLRDQGNQEQDPNISNGEEEEEKEPGEVGTHNDNQERKTELPREHANSKQEEDNTQSDDILEESDQPTQVSKMQEDEFDQGNQEQEDNSNAEMEEENASNVNKHIQETEWQSQEGKTGLEAISNHKETEEKTVSEALLMEPTDDGNTTPRNHGVDDDGDDDGDDGGTDGPRHSASDDYFIPSQAFLEAERAQSIAYHLKIEEQREKVHENENIGTTEPGEHQEAKKAENSSNEEETSSEGNMRVHAVDSCMSFQCKRGHICKADQQGKPHCVCQDPVTCPPTKPLDQVCGTDNQTYASSCHLFATKCRLEGTKKGHQLQLDYFGACKSIPTCTDFEVIQFPLRMRDWLKNILMQLYEANSEHAGYLNEKQRNKVKKIYLDEKRLLAGDHPIDLLLRDFKKNYHMYVYPVHWQFSELDQHPMDRVLTHSELAPLRASLVPMEHCITRFFEECDPNKDKHITLKEWGHCFGIKEEDIDENLLF
number of synapses formed (RGCs [2]; 3 DIV RGCs treated 9 days, TSP2 EGF-like domains 20 nM, Hevin 30 nM, vs RGCs alone): increased the number of synapses formed significantly
